Experimental data reported in PubChem BioAssay AID2060498 (Molecular Pharmacology Branch, DTP, NCI, 2025).

System: 171881-019-R-J1-PDC tumor spheroids, viability
Assay: Anticancer human tumor 171881-019-R-J1-PDC patient-derived invasive breast carcinoma cell line growth inhibition [GQUAD]
Settings: spheroids with HUVEC and MSC; for IC50: curve of first compound; for viability, T/C: stronger effect = lower value
Procedure, shortened: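 Tumor cells were grown as complex spheroids with HUVEC endothelial cells and mesenchymal stem cells as stroma. G-quadruplex stabilizers were combined with targeted agents over half-log dilutions from near the clinical Cmax, or from 10 microM.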

[1] = second compound 0.0316 µM, first compound 0.0316 µM
[2] = second compound 0.0316 µM, first compound 0.316 µM
[3] = second compound 0.1 µM, first compound 0.0316 µM
[4] = second compound 0.1 µM, first compound 0.316 µM
[5] = second compound 0.316 µM, first compound 0.0316 µM
[6] = second compound 0.316 µM, first compound 0.316 µM
[7] = second compound 1 µM, first compound 0.0316 µM
[8] = second compound 1 µM, first compound 0.316 µM
[9] = second compound 3.16 µM, first compound 0.0316 µM
[10] = second compound 3.16 µM, first compound 0.316 µM
[11] = second compound 10 µM, first compound 0.0316 µM
[12] = second compound 10 µM, first compound 0.316 µM
[13] = second compound 0.0316 µM, first compound 0.1 µM
[14] = second compound 0.0316 µM, first compound 1 µM
[15] = second compound 0.0316 µM, first compound 3.16 µM
[16] = second compound 0.0316 µM, first compound 10 µM
[17] = second compound 0.1 µM, first compound 0.1 µM
[18] = second compound 0.1 µM, first compound 1 µM
[19] = second compound 0.1 µM, first compound 3.16 µM
[20] = second compound 0.1 µM, first compound 10 µM
[21] = second compound 0.316 µM, first compound 0.1 µM
[22] = second compound 0.316 µM, first compound 1 µM
[23] = second compound 0.316 µM, first compound 3.16 µM
[24] = second compound 0.316 µM, first compound 10 µM
[25] = second compound 1 µM, first compound 0.1 µM
[26] = second compound 1 µM, first compound 1 µM
[27] = second compound 1 µM, first compound 3.16 µM
[28] = second compound 1 µM, first compound 10 µM
[29] = second compound 3.16 µM, first compound 0.1 µM
[30] = second compound 3.16 µM, first compound 1 µM
[31] = second compound 3.16 µM, first compound 3.16 µM
[32] = second compound 3.16 µM, first compound 10 µM
[33] = second compound 10 µM, first compound 0.1 µM
[34] = second compound 10 µM, first compound 1 µM
[35] = second compound 10 µM, first compound 3.16 µM
[36] = second compound 10 µM, first compound 10 µM
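Note: spheroids exposed to compounds for 7 days.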
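Throughout, for viability, T/C: 100% = DMSO vehicle control viability.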

Cc1[nH]c2ccccc2c1CCNCc1ccc(/C=C/C(=O)NO)cc1 + Cc1cnc(CNC(=O)c2c(=O)c3ccc(N4CCCN(C)CC4)nc3n3c2sc2ccccc23)cn1
IC50 (second compound 0.0316 µM): 0.0433 µM | IC50 (second compound 0.1 µM): 0.0475 µM | IC50 (second compound 0.316 µM): 0.0434 µM | IC50 (second compound 1 µM): 0.046 µM | IC50 (second compound 3.16 µM): 0.0372 µM | IC50 (second compound 10 µM): 0.0376 µM | viability, T/C (second compound 0.0316 µM, first compound 0.000999 µM): 108% | viability, T/C (second compound 0.0316 µM, first compound 0.00316 µM): 89.9% | viability, T/C (second compound 0.0316 µM, first compound 0.00999 µM): 81.7% | viability, T/C [1]: 61.3% | viability, T/C (second compound 0.0316 µM, first compound 0.0999 µM): 26.1% | viability, T/C [2]: 0.61% | viability, T/C (second compound 0.1 µM, first compound 0.000999 µM): 89.1% | viability, T/C (second compound 0.1 µM, first compound 0.00316 µM): 75.4% | viability, T/C (second compound 0.1 µM, first compound 0.00999 µM): 69.1% | viability, T/C [3]: 66.9% | viability, T/C (second compound 0.1 µM, first compound 0.0999 µM): 24.9% | viability, T/C [4]: 0.91% | viability, T/C (second compound 0.316 µM, first compound 0.000999 µM): 75.3% | viability, T/C (second compound 0.316 µM, first compound 0.00316 µM): 71.1% | viability, T/C (second compound 0.316 µM, first compound 0.00999 µM): 71.2% | viability, T/C [5]: 58.9% | viability, T/C (second compound 0.316 µM, first compound 0.0999 µM): 26.6% | viability, T/C [6]: 0.83% | viability, T/C (second compound 1 µM, first compound 0.000999 µM): 71.9% | viability, T/C (second compound 1 µM, first compound 0.00316 µM): 61.2% | viability, T/C (second compound 1 µM, first compound 0.00999 µM): 64% | viability, T/C [7]: 62.9% | viability, T/C (second compound 1 µM, first compound 0.0999 µM): 23.4% | viability, T/C [8]: 0.22% | viability, T/C (second compound 3.16 µM, first compound 0.000999 µM): 60.9% | viability, T/C (second compound 3.16 µM, first compound 0.00316 µM): 57.4% | viability, T/C (second compound 3.16 µM, first compound 0.00999 µM): 67.8% | viability, T/C [9]: 55.9% | viability, T/C (second compound 3.16 µM, first compound 0.0999 µM): 12.2% | viability, T/C [10]: 0.93% | viability, T/C (second compound 10 µM, first compound 0.000999 µM): 57.4% | viability, T/C (second compound 10 µM, first compound 0.00316 µM): 61.3% | viability, T/C (second compound 10 µM, first compound 0.00999 µM): 57.1% | viability, T/C [11]: 58.1% | viability, T/C (second compound 10 µM, first compound 0.0999 µM): 3.88% | viability, T/C [12]: 0.37%

O=C(NO)c1cnc(N2CCN(S(=O)(=O)c3ccc4ccccc4c3)CC2)nc1 + Cc1cnc(CNC(=O)c2c(=O)c3ccc(N4CCCN(C)CC4)nc3n3c2sc2ccccc23)cn1
IC50 (second compound 0.0316 µM): 0.167 µM | IC50 (second compound 0.1 µM): 0.194 µM | IC50 (second compound 0.316 µM): 0.16 µM | IC50 (second compound 1 µM): 0.148 µM | IC50 (second compound 3.16 µM): 0.118 µM | IC50 (second compound 10 µM): 0.111 µM | viability, T/C [1]: 81.5% | viability, T/C [13]: 60.9% | viability, T/C [2]: 36.3% | viability, T/C [14]: 2.76% | viability, T/C [15]: 0.43% | viability, T/C [16]: 0.3% | viability, T/C [3]: 75.5% | viability, T/C [17]: 68.2% | viability, T/C [4]: 36.2% | viability, T/C [18]: 2.32% | viability, T/C [19]: 0.07% | viability, T/C [20]: 0.41% | viability, T/C [5]: 60.8% | viability, T/C [21]: 61.7% | viability, T/C [6]: 33.8% | viability, T/C [22]: 1.48% | viability, T/C [23]: 0.32% | viability, T/C [24]: 0.45% | viability, T/C [7]: 67% | viability, T/C [25]: 57.1% | viability, T/C [8]: 32.3% | viability, T/C [26]: 0.14% | viability, T/C [27]: 0.48% | viability, T/C [28]: 0.09% | viability, T/C [9]: 60% | viability, T/C [29]: 51.9% | viability, T/C [10]: 27.6% | viability, T/C [30]: 0.22% | viability, T/C [31]: 0.63% | viability, T/C [32]: 0.36% | viability, T/C [11]: 52.8% | viability, T/C [33]: 52.5% | viability, T/C [12]: 23.7% | viability, T/C [34]: 0.3% | viability, T/C [35]: 0.83% | viability, T/C [36]: 0.13%

O=c1[nH]cc(F)c(=O)[nH]1 + Cc1cnc(CNC(=O)c2c(=O)c3ccc(N4CCCN(C)CC4)nc3n3c2sc2ccccc23)cn1
IC50 (second compound 0.0316 µM): > 10 µM | IC50 (second compound 0.1 µM): > 10 µM | IC50 (second compound 0.316 µM): > 10 µM | IC50 (second compound 1 µM): > 10 µM | IC50 (second compound 3.16 µM): > 10 µM | IC50 (second compound 10 µM): > 10 µM | viability, T/C [1]: 80.2% | viability, T/C [13]: 69.5% | viability, T/C [2]: 57.5% | viability, T/C [14]: 57.4% | viability, T/C [15]: 54.5% | viability, T/C [16]: 57% | viability, T/C [3]: 77.7% | viability, T/C [17]: 67.7% | viability, T/C [4]: 62.2% | viability, T/C [18]: 58.3% | viability, T/C [19]: 59.4% | viability, T/C [20]: 60.4% | viability, T/C [5]: 68.9% | viability, T/C [21]: 71.2% | viability, T/C [6]: 65.6% | viability, T/C [22]: 58.7% | viability, T/C [23]: 65.2% | viability, T/C [24]: 59.4% | viability, T/C [7]: 67.7% | viability, T/C [25]: 60.6% | viability, T/C [8]: 65.5% | viability, T/C [26]: 60.2% | viability, T/C [27]: 66.2% | viability, T/C [28]: 63.1% | viability, T/C [9]: 65% | viability, T/C [29]: 59.6% | viability, T/C [10]: 58.9% | viability, T/C [30]: 55.5% | viability, T/C [31]: 65% | viability, T/C [32]: 62.3% | viability, T/C [11]: 59.1% | viability, T/C [33]: 59.6% | viability, T/C [12]: 55.1% | viability, T/C [34]: 57.7% | viability, T/C [35]: 61.5% | viability, T/C [36]: 54%
